How the values were obtained:
HCT-15 = assay: NCI 60 cell line panel; type: cell-based; settings: Homo sapiens, Colon Cancer
[1] = test system: cellular microtubules in A-10 cells; assay: Microtubule depolymerization, indirect immunofluorescence; type: cell-based; settings: for effect on cellular microtubules: in words
Experimental: Evaluation of microtubule inhibition was performed using previously described methods.^22 Indirect immunofluorescence was used to evaluate the effects of the compounds on cellular microtubules as described previously.^38 Briefly, A-10 cells were treated for 18 h with vehicle (DMSO) or a compound, and microtubule effects were evaluated microscopically using β-tubulin antibody. The EC50 was calculated from 3 independent experiments and expressed as the mean±SD.

[2] = test system: WTβ3 cells (HeLa overexpressing βIII tubulin); assay: Antiproliferative SRB assay; type: cell-based; settings: for IC50: Homo sapiens, HeLa, SRB, 48 h, read-out: IC50 ± SD in WTβ3
SNB-19 = assay: NCI 60 cell line panel; type: cell-based; settings: Homo sapiens, CNS Cancer
EKVX = assay: NCI 60 cell line panel; type: cell-based; settings: Homo sapiens, NSCLC
MDA-MB-231/ATCC = assay: NCI 60 cell line panel; type: cell-based; settings: Homo sapiens, Breast Cancer
OVCAR-3 = assay: NCI 60 cell line panel; type: cell-based; settings: Homo sapiens, Ovarian cancer
RXF 393 = assay: NCI 60 cell line panel; type: cell-based; settings: Homo sapiens, Renal Cancer
VEGFR-2 = VEGFR-2 (Homo sapiens (Human), UniProt P35968); assay: VEGFR-2 kinase inhibition, phosphotyrosine ELISA cytoblot; type: cell-based; settings: for IC50: U251 cells, phosphotyrosine ELISA
Experimental: (§1) Cells used were tumor cell lines naturally expressing high levels of EGFR (A431), VEGFR-2 (U251), and PDGFR-β (SH-SYSY). […] The reaction was stopped and cells were permeabilized by quickly removing the media from the cells and adding ice-cold Tris-buffered saline (TBS) containing 0.05% Triton X-100, protease inhibitor cocktail and tyrosine phosphatase inhibitor cocktail. The TBS solution was then removed and cells fixed to the plate for 30 min at 60° C. and further incubation in 70% ethanol for an additional 30 min. Cells were further exposed to block (TBS with 1% BSA) for 1 h, washed, and then a horseradish peroxidase (HRP)-conjugated phosphotyrosine (PY) antibody was added overnight.

OVCAR-4 = assay: NCI 60 cell line panel; type: cell-based; settings: Homo sapiens, Ovarian cancer
NCI-H23 = assay: NCI 60 cell line panel; type: cell-based; settings: Homo sapiens, NSCLC
UO-31 = assay: NCI 60 cell line panel; type: cell-based; settings: Homo sapiens, Renal Cancer
SN 12C = assay: NCI 60 cell line panel; type: cell-based; settings: Homo sapiens, SN12C, Renal Cancer
K-562 = assay: NCI 60 cell line panel; type: cell-based; settings: Homo sapiens, K562, Leukemia
COLO 205 = assay: NCI 60 cell line panel; type: cell-based; settings: Homo sapiens, Colon Cancer
MOLT-4 = assay: NCI 60 cell line panel; type: cell-based; settings: Homo sapiens, Leukemia
MDA-435 cells = assay: Antiproliferative SRB assay; type: cell-based; settings: MDA435, 48 h, read-out: IC50 ± SD in MDA-435 cells
M14 = assay: NCI 60 cell line panel; type: cell-based; settings: Homo sapiens, Melanoma
NCI-H522 = assay: NCI 60 cell line panel; type: cell-based; settings: Homo sapiens, NSCLC
OVCAR-8 = assay: NCI 60 cell line panel; type: cell-based; settings: Homo sapiens, Ovarian cancer
HCC-2998 = assay: NCI 60 cell line panel; type: cell-based; settings: Homo sapiens, Colon Cancer
HOP-62 = assay: NCI 60 cell line panel; type: cell-based; settings: Homo sapiens, NSCLC
DU-145 = assay: NCI 60 cell line panel; type: cell-based; settings: Homo sapiens, Prostate Cancer
BT-549 = assay: NCI 60 cell line panel; type: cell-based; settings: Homo sapiens
786-0 = assay: NCI 60 cell line panel; type: cell-based; settings: Homo sapiens
EGFR = EGFR (Homo sapiens (Human), UniProt P00533); assay: EGFR kinase inhibition, phosphotyrosine ELISA cytoblot; type: cell-based; settings: A431 cells
Experimental: as §1

SK-MEL-2 = assay: NCI 60 cell line panel; type: cell-based; settings: Homo sapiens
HS 578T = assay: NCI 60 cell line panel; type: cell-based; settings: Homo sapiens, Breast Cancer
U251 = assay: NCI 60 cell line panel; type: cell-based; settings: Homo sapiens, U-251, CNS Cancer
SKOV3 cells = assay: Antiproliferative SRB assay; type: cell-based; settings: Homo sapiens, SK-OV-3, 48 h, read-out: IC50 ± SD in SKOV3 cells
SF-539 = assay: NCI 60 cell line panel; type: cell-based; settings: Homo sapiens, CNS Cancer
CCRF-CEM = assay: NCI 60 cell line panel; type: cell-based; settings: Homo sapiens, Leukemia
SNB-75 = assay: NCI 60 cell line panel; type: cell-based; settings: Homo sapiens, CNS Cancer
HCT-116 = assay: NCI 60 cell line panel; type: cell-based; settings: Homo sapiens, Colon Cancer
MCF7 = assay: NCI 60 cell line panel; type: cell-based; settings: Homo sapiens, Breast Cancer
SW-620 = assay: NCI 60 cell line panel; type: cell-based; settings: Homo sapiens, Colon Cancer
SK-MEL-5 = assay: NCI 60 cell line panel; type: cell-based; settings: Homo sapiens, Melanoma
ACHN = assay: NCI 60 cell line panel; type: cell-based; settings: Homo sapiens, Renal Cancer
HOP-92 = assay: NCI 60 cell line panel; type: cell-based; settings: Homo sapiens, NSCLC
HT29 = assay: NCI 60 cell line panel; type: cell-based; settings: Homo sapiens, HT-29, Colon Cancer
KM12 = assay: NCI 60 cell line panel; type: cell-based; settings: Homo sapiens, Colon Cancer
HeLa cells = assay: Antiproliferative SRB assay; type: cell-based; settings: Homo sapiens, HeLa, 48 h, read-out: IC50 ± SD in HeLa
UACC-62 = assay: NCI 60 cell line panel; type: cell-based; settings: Homo sapiens, Melanoma
TK-10 = assay: NCI 60 cell line panel; type: cell-based; settings: Homo sapiens, Renal Cancer
OVCAR-5 = assay: NCI 60 cell line panel; type: cell-based; settings: Homo sapiens, Ovarian cancer
PC-3 = assay: NCI 60 cell line panel; type: cell-based; settings: Homo sapiens, Prostate Cancer
SK-OV-3 = assay: NCI 60 cell line panel; type: cell-based; settings: Homo sapiens, Ovarian cancer
A431 cancer cells = assay: A431 cytotoxicity (cell proliferation); type: cell-based, human; settings: Homo sapiens, A-431
LOX IMVI = assay: NCI 60 cell line panel; type: cell-based; settings: Homo sapiens, Melanoma

Sequence of VEGFR-2 (P35968 20-1356): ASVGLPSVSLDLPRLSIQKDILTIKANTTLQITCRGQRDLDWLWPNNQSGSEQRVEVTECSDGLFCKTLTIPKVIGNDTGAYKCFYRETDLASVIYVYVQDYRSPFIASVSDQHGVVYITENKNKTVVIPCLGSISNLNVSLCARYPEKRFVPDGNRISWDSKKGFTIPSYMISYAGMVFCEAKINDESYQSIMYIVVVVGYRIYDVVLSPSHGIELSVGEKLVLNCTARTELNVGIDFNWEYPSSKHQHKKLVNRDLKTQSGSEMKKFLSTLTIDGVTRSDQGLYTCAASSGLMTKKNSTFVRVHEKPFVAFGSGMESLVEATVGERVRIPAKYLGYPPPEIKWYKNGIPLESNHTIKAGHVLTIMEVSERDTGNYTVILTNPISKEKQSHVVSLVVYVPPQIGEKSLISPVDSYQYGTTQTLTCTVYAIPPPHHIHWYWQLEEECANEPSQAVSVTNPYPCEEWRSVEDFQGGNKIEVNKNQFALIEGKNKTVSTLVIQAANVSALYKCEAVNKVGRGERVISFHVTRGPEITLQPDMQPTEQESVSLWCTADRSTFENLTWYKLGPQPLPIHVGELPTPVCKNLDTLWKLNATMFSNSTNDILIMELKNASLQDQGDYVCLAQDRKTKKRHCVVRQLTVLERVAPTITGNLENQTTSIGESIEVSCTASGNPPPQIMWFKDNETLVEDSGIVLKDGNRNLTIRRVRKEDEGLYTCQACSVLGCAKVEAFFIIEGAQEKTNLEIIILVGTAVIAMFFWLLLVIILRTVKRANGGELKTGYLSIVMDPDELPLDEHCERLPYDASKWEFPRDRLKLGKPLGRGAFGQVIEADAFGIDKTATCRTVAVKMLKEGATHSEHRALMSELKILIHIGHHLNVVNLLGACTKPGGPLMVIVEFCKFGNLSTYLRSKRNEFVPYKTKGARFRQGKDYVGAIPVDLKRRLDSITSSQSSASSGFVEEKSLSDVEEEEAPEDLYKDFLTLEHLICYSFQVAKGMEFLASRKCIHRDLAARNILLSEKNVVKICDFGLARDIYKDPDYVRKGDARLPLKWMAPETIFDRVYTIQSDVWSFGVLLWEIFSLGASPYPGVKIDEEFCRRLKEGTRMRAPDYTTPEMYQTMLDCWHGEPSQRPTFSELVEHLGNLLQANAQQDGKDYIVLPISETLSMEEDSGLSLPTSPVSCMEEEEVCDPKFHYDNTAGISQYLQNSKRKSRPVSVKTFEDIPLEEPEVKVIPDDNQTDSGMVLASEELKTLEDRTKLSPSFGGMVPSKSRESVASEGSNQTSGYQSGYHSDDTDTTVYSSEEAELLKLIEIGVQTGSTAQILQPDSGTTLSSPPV
Sequence of EGFR (P00533 25-1210): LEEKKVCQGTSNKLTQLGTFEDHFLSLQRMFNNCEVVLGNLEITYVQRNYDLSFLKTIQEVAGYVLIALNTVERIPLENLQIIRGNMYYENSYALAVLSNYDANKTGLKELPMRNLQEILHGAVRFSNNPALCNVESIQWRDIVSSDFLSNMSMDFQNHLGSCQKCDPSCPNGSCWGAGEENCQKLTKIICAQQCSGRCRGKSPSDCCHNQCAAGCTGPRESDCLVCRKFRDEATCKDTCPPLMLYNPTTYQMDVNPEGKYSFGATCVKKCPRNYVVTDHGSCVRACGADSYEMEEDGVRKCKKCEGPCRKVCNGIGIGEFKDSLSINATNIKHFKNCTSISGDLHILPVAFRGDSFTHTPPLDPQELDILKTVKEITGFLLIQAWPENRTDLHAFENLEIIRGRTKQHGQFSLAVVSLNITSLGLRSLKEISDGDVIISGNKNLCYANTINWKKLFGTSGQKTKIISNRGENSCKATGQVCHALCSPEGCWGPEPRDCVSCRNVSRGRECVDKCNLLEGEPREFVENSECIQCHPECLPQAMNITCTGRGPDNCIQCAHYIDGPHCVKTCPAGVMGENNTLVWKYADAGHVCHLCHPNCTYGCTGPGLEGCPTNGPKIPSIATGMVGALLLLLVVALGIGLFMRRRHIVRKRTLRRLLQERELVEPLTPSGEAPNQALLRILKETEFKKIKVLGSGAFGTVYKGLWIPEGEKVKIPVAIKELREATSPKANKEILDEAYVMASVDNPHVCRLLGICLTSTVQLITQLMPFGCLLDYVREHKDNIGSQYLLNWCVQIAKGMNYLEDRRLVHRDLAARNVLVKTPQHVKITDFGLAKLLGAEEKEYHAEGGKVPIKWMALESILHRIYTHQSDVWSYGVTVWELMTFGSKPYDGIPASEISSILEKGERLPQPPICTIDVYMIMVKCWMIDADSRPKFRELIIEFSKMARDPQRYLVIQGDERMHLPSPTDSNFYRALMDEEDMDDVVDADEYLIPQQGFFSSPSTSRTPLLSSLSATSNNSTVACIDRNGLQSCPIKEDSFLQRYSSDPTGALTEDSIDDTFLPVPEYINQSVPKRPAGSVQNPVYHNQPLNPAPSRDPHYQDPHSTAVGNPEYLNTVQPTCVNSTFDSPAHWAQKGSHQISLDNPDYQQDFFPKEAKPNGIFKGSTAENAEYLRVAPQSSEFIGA

## Cc1nc(N(C)c2ccc3occc3c2)c2cc(C)oc2n1 [Compound 7, N-1-benzofuran-5-yl-N,2,6-trimethylfuro[2,3-d]pyrimidin-4-amine]
HCT-15
  GI50: 0.0519 µM
[1]; EC50 MT depolymerization / IC50 MDA-435
  EC50/IC50 ratio: 28
[1]
  effect on cellular microtubules: dose-dependent loss of cellular microtubules
[2]
  IC50: 0.243 ± 0.0151 µM
[2]; WTβ3 vs HeLa
  Rr value (relative resistance): 0.8
SNB-19
  GI50: 0.0936 µM
EKVX
  GI50: 0.396 µM
MDA-MB-231/ATCC
  GI50: 0.223 µM
OVCAR-3
  GI50: 0.03 µM
RXF 393
  GI50: 0.0572 µM
VEGFR-2
  IC50: 0.0058 ± 0.00073 µM
VEGFR-2; vs sunitinib
  fold better than sunitinib, VEGFR-2: 3 fold
OVCAR-4
  GI50: 0.553 µM
NCI-H23
  GI50: 0.206 µM
UO-31
  GI50: 0.278 µM
SN 12C
  GI50: 0.611 µM
K-562
  GI50: 0.0404 µM
COLO 205
  GI50: 0.139 µM
MOLT-4
  GI50: 0.211 µM
MDA-435 cells
  IC50: 0.133 ± 0.0017 µM
M14
  GI50: 0.0473 µM
NCI-H522
  GI50: 0.0299 µM
OVCAR-8
  GI50: 0.33 µM
HCC-2998
  GI50: 0.185 µM
HOP-62
  GI50: 0.0752 µM
DU-145
  GI50: 0.198 µM
BT-549
  GI50: 0.432 µM
786-0
  GI50: 1.04 µM
EGFR
  IC50: 0.307 ± 0.0421 µM
SK-MEL-2
  GI50: 0.0824 µM
HS 578T
  GI50: 0.0517 µM
U251
  GI50: 0.084 µM
SKOV3 cells
  IC50: 0.425 ± 0.0531 µM
SF-539
  GI50: 0.0609 µM
CCRF-CEM
  GI50: 0.121 µM
SNB-75
  GI50: 0.103 µM
HCT-116
  GI50: 0.0771 µM
MCF7
  GI50: 0.0438 µM
SW-620
  GI50: 0.0588 µM
SK-MEL-5
  GI50: 0.0504 µM
ACHN
  GI50: 0.265 µM
HOP-92
  GI50: 0.226 µM
HT29
  GI50: 0.0519 µM
KM12
  GI50: 0.0584 µM
HeLa cells
  IC50: 0.302 ± 0.0234 µM
UACC-62
  GI50: 0.0571 µM
TK-10
  GI50: 0.382 µM
OVCAR-5
  GI50: 0.531 µM
PC-3
  GI50: 0.183 µM
SK-OV-3
  GI50: 0.098 µM
A431 cancer cells
  IC50: 0.0732 ± 0.0101 µM
LOX IMVI
  GI50: 0.162 µM

## COc1ccc2c(c1)CCCN2c1nc(C)nc2oc(C)cc12 [Compound 10, 4-(6-methoxy-3,4-dihydroquinolin-1(2H)-yl)-2,6-dimethylfuro[2,3-d]pyrimidine]
HCT-15
  GI50: < 0.01 µM
[1]; A-10 cells, 18 h, read-out: EC50 for MT depolymerization in A-10 cells
  EC50: 0.021 µM
[1]
  effect on cellular microtubules: dose-dependent loss of cellular microtubules
[2]
  IC50: 0.0091 ± 0.0018 µM
SNB-19
  GI50: < 0.01 µM
EKVX
  GI50: < 0.01 µM
MDA-MB-231/ATCC
  GI50: 0.0114 µM
OVCAR-3
  GI50: < 0.01 µM
RXF 393
  GI50: < 0.01 µM
VEGFR-2
  IC50: 0.0332 ± 0.005 µM
OVCAR-4
  GI50: 0.051 µM
NCI-H23
  GI50: < 0.01 µM
UO-31
  GI50: < 0.01 µM
SN 12C
  GI50: < 0.01 µM
K-562
  GI50: < 0.01 µM
COLO 205
  GI50: < 0.01 µM
MOLT-4
  GI50: 0.015 µM
MDA-435 cells
  IC50: 0.0098 ± 0.0009 µM
M14
  GI50: < 0.01 µM
NCI-H522
  GI50: < 0.01 µM
OVCAR-8
  GI50: < 0.01 µM
HCC-2998
  GI50: 0.012 µM
HOP-62
  GI50: < 0.01 µM
DU-145
  GI50: < 0.01 µM
BT-549
  GI50: < 0.01 µM
786-0
  GI50: < 0.01 µM
EGFR
  IC50: 0.0034 ± 0.0008 µM
SK-MEL-2
  GI50: < 0.01 µM
HS 578T
  GI50: < 0.01 µM
U251
  GI50: < 0.01 µM
SKOV3 cells
  IC50: 0.0129 ± 0.0012 µM
SF-539
  GI50: < 0.01 µM
CCRF-CEM
  GI50: < 0.01 µM
SNB-75
  GI50: < 0.01 µM
HCT-116
  GI50: < 0.01 µM
MCF7
  GI50: < 0.01 µM
SW-620
  GI50: < 0.01 µM
SK-MEL-5
  GI50: < 0.01 µM
ACHN
  GI50: < 0.01 µM
HOP-92
  GI50: 0.0586 µM
HT29
  GI50: < 0.01 µM
KM12
  GI50: < 0.01 µM
HeLa cells
  IC50: 0.0135 ± 0.0005 µM
UACC-62
  GI50: < 0.01 µM
TK-10
  GI50: < 0.01 µM
OVCAR-5
  GI50: 0.043 µM
PC-3
  GI50: < 0.01 µM
SK-OV-3
  GI50: < 0.01 µM
A431 cancer cells
  IC50: 0.018 ± 0.0029 µM
LOX IMVI
  GI50: < 0.01 µM

— patent US10189853B2, “Conformationally restricted 4-substituted-2,6-dimethylfuro[2,3-d]pyrimidines as anti-tumor agents” (DUQUESNE UNIVERSITY OF THE HOLY SPIRIT, priority 2014, dated 2019)
